# Laboratory results taken from US6258790A, “Antisense modulation of integrin α4 expression” (Isis Pharmaceuticals, Inc., priority 1999, dated 2001).
# Columns and labels:
# [1] = test system: dextran sulfate-mediated colitis in mice; settings: cited from earlier work
# [2] = test system: Mouse experimental autoimmune encephalomyelitis (EAE); test: Mouse experimental autoimmune encephalomyelitis (EAE) model for multiple sclerosis; format: in vivo, mouse (CSJLF-1); settings: scrambled control; for Peak Severity: score 0 to 5
# [3] = test system: leukocyte trafficking into the central nervous system of EAE mice; test: Reduction of leukocyte trafficking into the central nervous system of EAE mice (immunostaining of sections); format: in vivo, mouse (CSJLF1); settings: EAE experiment 4
# Experimental: The pieces were embedded in O.C.T. tissue freezing medium (Ted Pella Inc., Redding, Calif.) on dry ice and methylbutane. Four-micron frozen sections were cut and air dried overnight. The sections were fixed for three minutes in ice-cold acetone and then placed on a Dako Autostainer (Dako Corporation, Carpinteria, Calif.) and treated in the following steps: 5 minutes in 0.03% H2 O2, 5 minutes in 5% donkey serum diluted in PBS, 45 minutes in appropriately diluted primary antibody, 30 minutes in horseradish peroxidase-labeled donkey anti-rat secondary antibody (Jackson Laboratory, Bar Harbor, Me.). Sections were rinsed between treatments with PBS. All the antibodies used were rat anti-mouse from PharMingen (San Diego, Calif.), except BM-8, which was from Bachem Bioscience Inc. (King of Prussia, Pa.). The immunostaining was developed with DAB (Dako Corporation) and counterstained with hematoxylin.
# [4] = test system: Mouse collagen-induced arthritis (CIA); test: Mouse collagen-induced arthritis (CIA) model for rheumatoid arthritis; format: in vivo, mouse (DBA/1LacJ); settings: Table 22; positive control, 5 mg/kg daily IP
# Source text: A model for human rheumatoid arthritis has been developed wherein mice are immunized with bovine type II collagen. Anderson et al., J. Immunol. 1991 147, 1189-1193, citing Trentham et al., J. Exp. Med 1977, 146, 857. Swelling and inflammation of the joints follows in approximately 3 weeks, with joint distortion and ankylosis typical of rheumatoid arthritis. This model has been used to study the effects of the antisense oligonucleotide 17044, targeted to mouse integrin α4, on arthritis in mice.
# DBA/1LacJ mice were obtained from Jackson Laboratory, Bar Harbor, Me. Female mice aged 6 to 8 weeks were used and assigned to groups, ten mice per group. On day 0 mice were immunized at the base of the tail with 100 ug of bovine type II collagen which was emulsified in Complete Freund's Adjuvant (CFA). On day 7, a second booster dose of collagen was administered by the same route. On day 14 the mice were injected subcutaneously with 100 ug of lipopolysaccharide (LPS). Weights were recorded weekly. Mice were inspected daily for the onset of CIA, which is characterized by erythema and edema. Upon the onset of the disease, paw widths and rear ankle widths of affected and unaffected joints were measured three times a week using a constant tension caliper. In addition, limbs were clinically evaluated and graded 0-4, where 0=normal; 1=one digit swollen; 2=inflammation present in more than one digit; 3=joint distortion with or without inflammation; and 4=ankylosis, detected by joint manipulation. The progression of all measurements was recorded to day 50. At the end of the observation period for each mouse, all paws were removed and examined histologically.
# The oligonucleotide, the positive control drug (cyclophosphamide, 5 mg/kg), and the vehicle were administered daily to each mouse intraperitoneally (IP) starting on day -3 and continuing for the duration of the study. Each animal received 10 mg/kg as a bolus daily dose.
# In a preliminary study, a single 10 mg/kg daily dose of […] was administered from the time of disease induction to the conclusion of the study 50 days later. Arthritis incidence was reduced from 70 to 30% in the ISIS 17044-treated group.
# leukocyte migration = settings: 3 mg/kg oral; 24 hours after implantation; cited from earlier work
# [5] = test system: C8161 human melanoma cells; test: Experimental metastasis assay, C8161 cells injected into athymic nude mice; format: in vivo, human melanoma cells in athymic nude mice
# Experimental: To evaluate the role of integrin α4 in metastasis, experimental metastasis assays are performed by injecting 1×10^5 C8161 cells into the lateral tail vein of athymic nude mice. C8161 is a human melanoma cell line. […] Four-week-old female athymic nude mice (Harlan Sprague Dawley) are used. Animals are maintained under the guidelines of the NIH. Groups of 4-8 mice each are tested in experimental metastasis assays.
# Treatment of C8161 cells with antisense oligonucleotide ISIS 27104, complementary to human integrin α4, is performed in the presence of the cationic lipid, LIPOFECTIN (Gibco/BRL, Gaithersburg, Md.). Cells are seeded in 60 mm tissue culture dishes at 10^6 cells/ml and incubated at 37° C. for 3 days, washed with Opti-MEM (Gibco/BRL) 3 times and 100 μl of Opti-MEM medium is added to each well. 0.5 μM oligonucleotide and 15 μg/ml LIPOFECTIN are mixed at room temperature for 15 minutes. 25 μl of the oligonucleotide-LIPOFECTIN mixture is added to the appropriate dishes and incubated at 37° C. for 4 hours. […] After 4 hours, 500 U/ml TNF-α is added to the appropriate wells and incubated for 18 hours at which time cells are removed from the plates, counted and injected into athymic nude mice. […]
# After 4 weeks, mice are sacrificed, organs are fixed in Bouin's fixative and metastatic lesions on lungs are scored with the aid of a dissecting microscope.
# human integrin α4 [6] = test: Integrin α4 protein expression in A375 cells after electroporation of oligonucleotide (flow cytometry); format: cell-based
# Experimental: A375 cells were treated with ISIS 107245, 107248, 107252, 107255 and 107259 by electroporation at 175 volts, r=1, c=1000, 0.2 ml Opti-MEM, 1×10^6 cells /ml, 2 mm gap electrode using a BTX Electro Cell Manipulator 600 (Genetronics, San Diego Calif.). Oligonucleotide concentrations were 1, 3, 10 and 30 μM. Cells were harvested 24 hours after oligonucleotide treatment and strained with 2 ug/ml CD49d-FITC for flow cytometry as in the previous examples.
# ISIS 107248 was compared directly to ISIS 27104 for ability to inhibit integrin α4 expression in A375 melanoma cells. Oligonucleotides were electroporated into cells as in the previous example.
# human integrin α4 [7] = test: Inhibition of human integrin α4 protein levels by antisense oligonucleotides (LIPOFECTIN, flow cytometry with CD49d-FITC) in A375 melanoma cells; format: cell-based; set-up: % Inhib.: tested at 200 nM
# [8] = Table 24, A375 cells, lipofectin, as Example 8
compound,measurement,setting,value
TGF-β,dextran sulfate-mediated colitis,[1],protect against dextran sulfate-mediated colitis in mice
"17614 (GCCGACACCCGTTCGTTCGG; phosphorothioate, 2'-MOE/deoxy, further chemistry not given here) [compound 17614]",Days to Onset,"[2]; EAE Experiment 3, 1 mg/kg",16.86 days
same,Disease Incidence,"[2]; EAE Experiment 3, 1 mg/kg",7/7
same,Peak Severity,"[2]; EAE Experiment 3, 1 mg/kg",2.14
same,Days to Onset,"[2]; EAE Experiment 4, 2 mg/kg SC",14.14 days
same,Disease Incidence,"[2]; EAE Experiment 4, 2 mg/kg SC",7/7
same,Peak Severity,"[2]; EAE Experiment 4, 2 mg/kg SC",1.86
same,Days to Onset,"[2]; EAE Experiment 5, 2 mg/kg SC",9 days
same,Disease Incidence,"[2]; EAE Experiment 5, 2 mg/kg SC",6/7
same,Peak Severity,"[2]; EAE Experiment 5, 2 mg/kg SC",1.71
same,"reduction of cellular influx, scrambled control",[3],not effective in reducing cellular influx
"O=P1(N(CCCl)CCCl)NCCCO1 (centres unmarked) [Cyclophosphamide, cyclophosphamide, reference compound]",# Paws/Mouse (mean number of affected paws at termination),[4],0 ± 0
same,Severity (total clinical score/total number of mice in group),[4],0 ± 0
COc1ccc2c(c1)c(CC(=O)O)c(C)n2C(=O)c1ccc(Cl)cc1 [Indomethacin],reduction in mean leukocyte count compared to vehicle control,leukocyte migration,75-80%
"27104 (CCCAAGCCATGCGCTCTCGG; phosphorothioate, 2'-MOE, 5-methyl-C, further chemistry not given here) [compound 27104]",enhanced metastatic ability of C8161 from TNF-α treatment,[5]; TNF-α treated cells,eliminates the enhanced metastatic ability
same,metastatic potential of C8161 cells,[5]; cells treated with oligonucleotide before injection,decreases the metastatic potential
same,% Control,"human integrin α4 [6]; Table 25, 1 nM as printed, 24 hours",86.2%
same,% Control,"human integrin α4 [6]; Table 25, 10 nM, 24 hours",63.2%
same,% Control,"human integrin α4 [6]; Table 25, 30 nM, 24 hours",35.3%
same,% Control,"human integrin α4 [6]; Table 26, 1 μM",86.2%
same,% Inhib.,"human integrin α4 [6]; Table 26, 1 μM",13.8%
same,% Control,"human integrin α4 [6]; Table 26, 3 μM",63.2%
same,% Inhib.,"human integrin α4 [6]; Table 26, 3 μM",36.8%
same,% Control,"human integrin α4 [6]; Table 26, 10 μM",35.3%
same,% Inhib.,"human integrin α4 [6]; Table 26, 10 μM",64.7%
same,% Control,"human integrin α4 [6]; Table 26, 30 μM",27.1%
same,% Inhib.,"human integrin α4 [6]; Table 26, 30 μM",72.9%
same,inhibition (Example 10),"human integrin α4 [7]; Example 10 assay, dose not stated",≥ 40%
same,inhibition (Example 11),"human integrin α4 [7]; Example 11 assay, dose not stated",≥ 40%
same,% Control,"human integrin α4 [7]; Table 4, 10 nM",69%
same,% Inhib.,"human integrin α4 [7]; Table 4, 10 nM",31%
same,% Control,"human integrin α4 [7]; Table 4, 30 nM",64%
same,% Inhib.,"human integrin α4 [7]; Table 4, 30 nM",36%
same,% Control,"human integrin α4 [7]; Table 4, 100 nM",49%
same,% Inhib.,"human integrin α4 [7]; Table 4, 100 nM",51%
same,% Control,"human integrin α4 [7]; Table 4, 300 nM",39%
same,% Inhib.,"human integrin α4 [7]; Table 4, 300 nM (highest dose)",61%
same,% Control,"human integrin α4 [7]; Table 6, 10 nM",84%
same,% Inhib.,"human integrin α4 [7]; Table 6, 10 nM",16%
same,% Control,"human integrin α4 [7]; Table 6, 30 nM",82%
same,% Inhib.,"human integrin α4 [7]; Table 6, 30 nM",18%
same,% Control,"human integrin α4 [7]; Table 6, 100 nM",59%
same,% Inhib.,"human integrin α4 [7]; Table 6, 100 nM",41%
same,% Control,"human integrin α4 [7]; Table 6, 300 nM",37%
same,% Inhib.,"human integrin α4 [7]; Table 6, 300 nM (highest dose)",63%
same,% Control,human integrin α4 [7]; [8],69%
same,% Inhib.,human integrin α4 [7]; [8],31%
